Experimental data reported in ChEMBL document CHEMBL3039007, “Structure-based identification of OATP1B1/3 inhibitors” (Mol Pharmacol, 2013).

Legend:
[1] = target: T1, Solute carrier organic anion transporter family member 1B1 (Homo sapiens, UniProt Q9Y6L6); settings: chinese hamster, cho, 10 µM
T1 sequence (Q9Y6L6 whole entry): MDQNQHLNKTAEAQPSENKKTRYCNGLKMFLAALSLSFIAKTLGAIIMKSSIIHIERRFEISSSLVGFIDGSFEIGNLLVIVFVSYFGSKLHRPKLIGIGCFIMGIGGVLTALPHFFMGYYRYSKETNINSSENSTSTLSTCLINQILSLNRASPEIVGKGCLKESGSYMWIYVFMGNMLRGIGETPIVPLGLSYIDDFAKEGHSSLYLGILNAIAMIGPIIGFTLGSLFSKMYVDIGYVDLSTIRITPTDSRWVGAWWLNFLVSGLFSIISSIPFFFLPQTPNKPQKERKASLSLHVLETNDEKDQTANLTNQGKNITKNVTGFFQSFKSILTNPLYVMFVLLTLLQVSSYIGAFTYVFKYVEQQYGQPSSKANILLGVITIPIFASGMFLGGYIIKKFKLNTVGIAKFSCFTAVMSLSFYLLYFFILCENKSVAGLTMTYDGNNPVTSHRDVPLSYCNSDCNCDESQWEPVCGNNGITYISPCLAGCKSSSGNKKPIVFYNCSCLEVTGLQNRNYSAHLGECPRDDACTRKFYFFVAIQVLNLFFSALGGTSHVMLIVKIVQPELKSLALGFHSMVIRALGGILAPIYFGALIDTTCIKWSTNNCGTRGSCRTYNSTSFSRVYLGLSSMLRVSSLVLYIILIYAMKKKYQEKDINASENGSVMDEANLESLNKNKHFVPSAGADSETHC

[2] = target: T2, Solute carrier organic anion transporter family member 1B3 (Homo sapiens, UniProt Q9NPD5); settings: chinese hamster, cho, 10 µM
T2 sequence (Q9NPD5 whole entry): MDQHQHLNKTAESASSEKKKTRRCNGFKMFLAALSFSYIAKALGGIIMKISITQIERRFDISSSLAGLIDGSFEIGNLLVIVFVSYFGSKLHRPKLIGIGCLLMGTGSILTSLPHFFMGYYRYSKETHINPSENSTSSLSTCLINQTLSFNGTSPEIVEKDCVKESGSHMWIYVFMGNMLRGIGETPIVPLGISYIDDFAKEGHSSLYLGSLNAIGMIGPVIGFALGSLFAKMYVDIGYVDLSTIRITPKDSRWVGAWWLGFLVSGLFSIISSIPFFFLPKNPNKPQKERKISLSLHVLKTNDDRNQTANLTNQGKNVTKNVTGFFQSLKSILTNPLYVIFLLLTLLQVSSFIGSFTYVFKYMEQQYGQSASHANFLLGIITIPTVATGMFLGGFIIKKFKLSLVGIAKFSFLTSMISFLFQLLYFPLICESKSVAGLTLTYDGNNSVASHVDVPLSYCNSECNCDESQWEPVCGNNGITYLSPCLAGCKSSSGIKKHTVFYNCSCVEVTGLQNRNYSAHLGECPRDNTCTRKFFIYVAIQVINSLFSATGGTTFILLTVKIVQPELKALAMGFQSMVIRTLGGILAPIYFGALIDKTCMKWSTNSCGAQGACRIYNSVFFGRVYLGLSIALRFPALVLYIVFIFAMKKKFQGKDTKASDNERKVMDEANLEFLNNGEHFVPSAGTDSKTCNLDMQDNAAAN

Row | SMILES | residual activity [1] [%] | residual activity [2] [%]
1 | CC(=O)OCC(=O)[C@@]12OC3(CCCC3)O[C@@H]1C[C@H]1[C@@H]3CCC4=CC(=O)C=C[C@]4(C)[C@@]3(F)[C@@H](O)C[C@@]12C [AMCINONIDE] | 35.76 | 56.58
2 | Cc1ccc(/N=C/N(C)/C=N/c2ccc(C)cc2C)c(C)c1 [AMITRAZ] | 108.2 | 87.86
3 | CC(=O)Oc1ccc(Cl)c2cccnc12 [CHLOROACETOXYQUINOLINE] | 90.22 | 92.5
4 | CC(=O)Nc1ccc(S(=O)(=O)Nc2ccc([N+](=O)[O-])cc2)cc1 | 61.58 | 88.89
5 | CC1(C)CC[C@]2(C)CC[C@]3(C)C(=CC[C@@H]4[C@@]5(C)CC[C@H](O)C(C)(C)[C@@H]5CC[C@]43C)[C@@H]2C1 [beta-AMYRIN] | 65.86 | 75.14
6 | O=c1oc2c(O)c(O)cc3c(=O)oc4c(O)c(O)cc1c4c23 [ELLAGIC ACID] | 75.25 | 65.47
7 | COc1ccc([C@H]2Oc3c(I)c(OC)cc(OC)c3C[C@@H]2O)cc1OC [8-IODOCATECHIN TETRAMETHYL ETHER] | 194.8 | 100.1
8 | Cl.Oc1ccc2c3c1O[C@H]1[C@@H](O)CC[C@@]4(O)[C@@H](C2)N(CC2CCC2)CC[C@]314 [NALBUPHINE HYDROCHLORIDE] | 86.64 | 96.59
9 | COC(=O)C[C@H]1C(C)(C)C(=O)[C@@H]2CC3C4=CC(=O)O[C@@H](c5ccoc5)[C@]4(C)CC[C@@H]3[C@@]1(C)C2=O (some centres undefined) [CARAPIN] | 20.92 | 66.49
10 | O=C1C(O)=C(O)C(=O)C(O)=C1O [TETROQUINONE] | 121.2 | 83.15
11 | O=C(O)CCCc1ccc(N(CCCl)CCCl)cc1 [CHLORAMBUCIL] | 123.9 | 102.7
12 | COC(=O)C[C@H]1C(C)(C)C(=O)[C@@H]2CC3=C4CC(=O)O[C@@H](c5ccoc5)[C@]4(C)CC[C@@H]3[C@@]1(C)C2=O [MEXICANOLIDE] | 44.09 | 122.7
13 | CC[C@H](CC[C@@H](C)[C@H]1CC[C@H]2[C@@H]3CC=C4C[C@@H](OC(C)=O)CC[C@]4(C)[C@H]3CC[C@]12C)C(C)C [SITOSTERYL ACETATE] | 97.72 | 83.78
14 | COc1c(CC(=O)c2cc3c(cc2O)OC(C)(C)C(O)C3)ccc2c1C=CC(C)(C)O2 (centres undefined) [DIHYDROMUNDULETONE] | 30.26 | 58.7
15 | CC(=O)OC[C@H]1O[C@@H](Oc2cc(OC(C)=O)c3c(=O)cc(-c4ccc(OC(C)=O)cc4)oc3c2)[C@H](OC(C)=O)[C@@H](OC(C)=O)[C@@H]1OC(C)=O [COSMOSIIN HEXAACETATE] | 95.2 | 48.4
16 | CC(C)OC(=O)Nc1cccc(Cl)c1 [CHLORPROPHAM] | 104.8 | 107
17 | COc1cc2c(cc1O)CCN[C@@H]2C [SALSOLINE] | 86.65 | 112.8
18 | Sc1ncnc2nc[nH]c12 [MERCAPTOPURINE ANHYDROUS] | 107.8 | 105.3
19 | OC[C@@H](O)C(O)[C@H](O)CO | 121.4 | 118.8
20 | NCC(CC(=O)O)c1ccc(Cl)cc1 (centres undefined) [BACLOFEN] | 80.8 | 102.2
21 | Cl.NC(CO)C(=O)NNCc1ccc(O)c(O)c1O (centres undefined) [BENSERAZIDE HYDROCHLORIDE] | 93.51 | 93.94
22 | CCCn1cnc2c1c(=O)n(CCCCC(C)=O)c(=O)n2C [PROPENTOFYLLINE] | 126.3 | 110.4
23 | O=C(CCc1ccc(O)cc1)c1c(O)cc(O)cc1O[C@@H]1O[C@H](CO)[C@@H](O)[C@H](O)[C@H]1O [PHLORIZIN] | 50.32 | 106.3
24 | Cc1ccc(C(=O)C(C)CN2CCCCC2)cc1.Cl (centres undefined) [TOLPERISONE HYDROCHLORIDE] | 96.3 | 112.7

Row | SMILES | residual activity [1] [%] | residual activity [2] [%]
25 | CN(C)CCC(c1ccc(Br)cc1)c1ccccn1.O=C(O)/C=C\C(=O)O (centres undefined) [BROMPHENIRAMINE MALEATE] | 88.52 | 90.7
26 | CC(=O)O[C@H]1CC[C@@]2(C)[C@H](CC[C@@H]3[C@@H]2CC[C@]2(C)[C@@H](C4=CC(=O)OC4)[C@@H](OC(C)=O)C[C@]32O)C1 [GITOXIGENIN DIACETATE] | 111.6 | 118.5
27 | Oc1c(Br)cc(Br)c2cccnc12 [BROXYQUINOLINE] | 57.32 | 75.68
28 | Cn1c(=O)[nH]c2ncn(C)c2c1=O [PARAXANTHINE] | 94.78 | 88.58
29 | CNC(=O)Oc1ccc2c(c1)[C@]1(C)CCN(C)[C@@H]1N2C [PHYSOSTIGMINE] | 78.13 | 80.76
30 | CN(C)C(=O)C(CCN1CCC(O)(c2ccc(Cl)cc2)CC1)(c1ccccc1)c1ccccc1.Cl [LOPERAMIDE HYDROCHLORIDE] | 51.98 | 94.1
31 | COc1c(C)c2c(c(O)c1C/C=C(\C)CCC(=O)O)C(=O)OC2 [MYCOPHENOLIC ACID] | 106.8 | 100.1
32 | C[C@H]1CCCC(=O)CCC/C=C/c2cc(O)cc(O)c2C(=O)O1 [ZEARALENONE] | 55.9 | 91.51
33 | COc1cc2c(cc1OC)[C@H](C)NCC2 [SALSOLIDINE] | 117.3 | 93.8
34 | CN1CCc2cc3c(cc2C1O)OCO3.Cl (centres undefined) [HYDRASTININE HYDROCHLORIDE] | 62.32 | 73.39
35 | C=C(C)C1Cc2c(ccc(C(=O)O)c2O)O1 (centres undefined) [TUBAIC ACID] | 158.2 | 80.8
36 | Nc1ncnc2nc[nH]c12 [ADENINE] | 90.14 | 81.98
37 | CC(=O)O[C@H]1C[C@@H](O)C(C)(C)[C@@H]2C[C@@H](OC(C)=O)[C@]3(C)[C@H](CC[C@@]4(C)[C@@H](c5ccoc5)OC(=O)[C@H]5O[C@@]534)[C@@]12C [3-DEACETYLKHIVORIN] | 94.07 | 88.69
38 | CC(=O)Nc1cc([As](=O)(O)O)ccc1O [ACETARSONE] | 58.73 | 85.71
39 | COc1ccc(-c2coc3cc(O)ccc3c2=O)c(O)c1O [KOPARIN] | 88.35 | 86.85
40 | Cc1ccc(C(=O)c2ccc(CC(=O)[O-])n2C)cc1.[Na+] [TOLMETIN SODIUM] | 127.1 | 90.31
41 | CC(C)CCC[C@@H](C)[C@H]1CC[C@H]2[C@@H]3CC[C@H]4CCCC[C@]4(C)[C@H]3CC[C@]12C | 88.28 | 103.3
42 | COc1c2c(cc3c1OCO3)CCN(C)C2 [HYDROCOTARNINE] | 77.76 | 98.91
43 | N[C@@H](CSCSC[C@H](N)C(=O)O)C(=O)O | 92.41 | 96.92
44 | COc1cc(O)c2c(=O)cc(-c3ccc(OC)c(-c4c(O)cc(O)c5c(=O)cc(-c6ccc([O-])cc6)oc45)c3)oc2c1.[K+] [GINKGETIN, K salt] | 46.45 | 46.72
45 | ClC1=C(Cl)C2(Cl)C3C4CC(C5OC45)C3C1(Cl)C2(Cl)Cl (centres undefined) [ENDRIN] | 107.3 | 121
46 | Cc1cccc(N(C)C(=S)Oc2ccc3ccccc3c2)c1 [TOLNAFTATE] | 126.3 | 119
47 | CC(=O)O[C@H]1CC[C@]2(C)C3=C(CC[C@H]2C1(C)C)[C@@]1(C)CC[C@H]([C@H](C)CCC=C(C)C)[C@]1(C)CC3 | 29.18 | 40.21
